US20100267561A1, “HERBICIDAL PYRIDAZINONE DERIVATIVES” (priority 2007, published 2010)

Legend:
Assay type in all cases: in vivo
[1] = system: barnyardgrass (Echinochloa crus-galli); assay: Test A pre-/postemergence plant response
In short: (§1)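 Soil: loam blended with sand. Formulation: non-phytotoxic solvent mixture plus surfactant, applied as preemergence directed soil spray and as postemergence spray. Scoring: visual, 0 no effect to 100 complete control, roughly 10 days post-treatment in greenhouse.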

corn (Zea mays) = assay: Test A pre-/postemergence plant response
In short: as §1

[2] = system: giant foxtail (Setaria faberi); assay: Test A pre-/postemergence plant response
In short: as §1

[3] = system: large crabgrass (Digitaria sanguinalis); assay: Test A pre-/postemergence plant response
In short: as §1

[4] = system: morningglory (Ipomoea coccinea); assay: Test A pre-/postemergence plant response
In short: as §1

[5] = system: velvetleaf (Abutilon theophrasti); assay: Test A pre-/postemergence plant response
In short: as §1

[6] = system: wheat (Triticum aestivum); assay: Test A pre-/postemergence plant response
In short: as §1

[7] = system: barnyardgrass (Echinochloa crus-galli); assay: Test B flooded paddy test plant response
In short: (§2)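 Rice, umbrella sedge, ducksalad and barnyardgrass at 2-leaf stage; pots flooded to 3 cm, compounds applied into paddy water, depth held throughout. Greenhouse 13 to 15 days, then visual rating vs untreated controls on 0–100 scale (0 no effect, 100 complete control); dash means no test result.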

rice (Oryza sativa) = assay: Test B flooded paddy test plant response
In short: as §2

[8] = system: umbrella sedge (Cyperus difformis); assay: Test B flooded paddy test plant response
In short: as §2

[9] = Postemergence, 125 g ai/ha, 0 to 100 scale, 0 no effect, 100 complete control
[10] = Postemergence, 500 g ai/ha, 0 to 100 scale, 0 no effect, 100 complete control
[11] = Preemergence, 125 g ai/ha, 0 to 100 scale (0 no effect, 100 complete control)
[12] = Preemergence, 500 g ai/ha, 0 to 100 scale (0 no effect, 100 complete control)
[13] = Flood (flooded paddy test), 62 g ai/ha, scale 0 to 100, 0 no effect, 100 complete control
[14] = Flood (flooded paddy test), 125 g ai/ha, scale 0 to 100, 0 no effect, 100 complete control
[15] = Flood (flooded paddy test), 250 g ai/ha, scale 0 to 100, 0 no effect, 100 complete control
[16] = Flood, 31 g ai/ha, scale 0 to 100
[17] = Postemergence, 31 g ai/ha, 0 to 100 scale, 0 no effect, 100 complete control
[18] = Preemergence, 31 g ai/ha, 0 to 100 scale, 0 is no effect, 100 is complete control

SMILES	Plant response rating, Barnyardgrass [1, 9]	Plant response rating, Barnyardgrass [1, 11]	Plant response rating, Corn (corn (Zea mays); [9])	Plant response rating, Corn (corn (Zea mays); [11])	Plant response rating, Foxtail, Giant [2, 9]	Plant response rating, Foxtail, Giant [2, 11]	Plant response rating, Crabgrass, Large [3, 9]	Plant response rating, Crabgrass, Large [3, 11]	Plant response rating, Morningglory [4, 9]	Plant response rating, Morningglory [4, 11]	Plant response rating, Velvetleaf [5, 9]	Plant response rating, Velvetleaf [5, 11]	Plant response rating, Wheat [6, 9]	Plant response rating, Wheat [6, 11]	Plant response rating, Barnyardgrass [7, 13]	Plant response rating, Barnyardgrass [7, 14]	Plant response rating, Barnyardgrass [7, 15]	Plant response rating, Barnyardgrass [7, 16]	Plant response rating, Rice (rice (Oryza sativa); [13])	Plant response rating, Rice (rice (Oryza sativa); [14])	other results
Cc1cc(-c2ccc(C(F)(F)F)cc2)nn1-c1c(O)c(C(C)C)nn(C)c1=O [Compound 27]	20	80	50	20	50	80	60	80	0	0	0	0	50	40	0	0	30	0	0	0	Plant response rating, Barnyardgrass [1, 10]: 90; Plant response rating, Barnyardgrass [1, 12]: 100; Plant response rating, Corn (corn (Zea mays); [10]): 80; Plant response rating, Corn (corn (Zea mays); [12]): 80; Plant response rating, Foxtail, Giant [2, 10]: 90; Plant response rating, Foxtail, Giant [2, 12]: 90; Plant response rating, Crabgrass, Large [3, 10]: 80; Plant response rating, Crabgrass, Large [3, 12]: 100; Plant response rating, Morningglory [4, 10]: 0; Plant response rating, Morningglory [4, 12]: 0; Plant response rating, Velvetleaf [5, 10]: 0; Plant response rating, Velvetleaf [5, 12]: 0; Plant response rating, Wheat [6, 10]: 90; Plant response rating, Wheat [6, 12]: 100; Plant response rating, Rice (rice (Oryza sativa); [15]): 0; Plant response rating, Rice (rice (Oryza sativa); [16]): 0; Plant response rating, Sedge, Umbrella [8, 13]: 20; Plant response rating, Sedge, Umbrella [8, 14]: 30; Plant response rating, Sedge, Umbrella [8, 15]: 65; Plant response rating, Sedge, Umbrella [8, 16]: 20
Cc1cc(-c2ccc(Cl)cc2)nn1-c1c(OS(=O)(=O)C(C)C)cnn(C)c1=O [Compound 50]	70	100	30	20	60	90	40	90	0	0	0	0	20	50	0	0	0	0	0	0	Plant response rating, Barnyardgrass [1, 17]: 0; Plant response rating, Barnyardgrass [1, 18]: 10; Plant response rating, Corn (corn (Zea mays); [17]): 0; Plant response rating, Corn (corn (Zea mays); [18]): 0; Plant response rating, Foxtail, Giant [2, 17]: 0; Plant response rating, Foxtail, Giant [2, 18]: 70; Plant response rating, Crabgrass, Large [3, 17]: 0; Plant response rating, Crabgrass, Large [3, 18]: 50; Plant response rating, Morningglory [4, 17]: 0; Plant response rating, Morningglory [4, 18]: 0; Plant response rating, Velvetleaf [5, 17]: 0; Plant response rating, Velvetleaf [5, 18]: 0; Plant response rating, Wheat [6, 17]: 0; Plant response rating, Wheat [6, 18]: 0; Plant response rating, Rice (rice (Oryza sativa); [15]): 0; Plant response rating, Rice (rice (Oryza sativa); [16]): 0; Plant response rating, Sedge, Umbrella [8, 13]: 0; Plant response rating, Sedge, Umbrella [8, 14]: 0; Plant response rating, Sedge, Umbrella [8, 15]: 0; Plant response rating, Sedge, Umbrella [8, 16]: 0
Cc1cc(-c2ccc(Cl)cc2)nn1-c1c(OS(=O)(=O)c2cccc3ccccc23)cnn(C)c1=O [Compound 47]	40	80	10	40	60	90	50	90	0	0	0	0	10	40	0	0	0	0	0	0	Plant response rating, Barnyardgrass [1, 17]: 0; Plant response rating, Barnyardgrass [1, 18]: 20; Plant response rating, Corn (corn (Zea mays); [17]): 0; Plant response rating, Corn (corn (Zea mays); [18]): 0; Plant response rating, Foxtail, Giant [2, 17]: 10; Plant response rating, Foxtail, Giant [2, 18]: 70; Plant response rating, Crabgrass, Large [3, 17]: 10; Plant response rating, Crabgrass, Large [3, 18]: 10; Plant response rating, Morningglory [4, 17]: 0; Plant response rating, Morningglory [4, 18]: 0; Plant response rating, Velvetleaf [5, 17]: 0; Plant response rating, Velvetleaf [5, 18]: 0; Plant response rating, Wheat [6, 17]: 0; Plant response rating, Wheat [6, 18]: 0; Plant response rating, Rice (rice (Oryza sativa); [15]): 0; Plant response rating, Rice (rice (Oryza sativa); [16]): 0; Plant response rating, Sedge, Umbrella [8, 13]: 0; Plant response rating, Sedge, Umbrella [8, 14]: 0; Plant response rating, Sedge, Umbrella [8, 15]: 0; Plant response rating, Sedge, Umbrella [8, 16]: 0
Cc1cc(-c2ccc(Cl)cc2)nn1-c1c(OS(=O)(=O)c2ccc(Cl)s2)cnn(C)c1=O [Compound 55]	30	80	40	40	70	90	60	80	0	0	0	0	30	50	0	0	65	0	0	0	Plant response rating, Barnyardgrass [1, 17]: 0; Plant response rating, Barnyardgrass [1, 18]: 0; Plant response rating, Corn (corn (Zea mays); [17]): 0; Plant response rating, Corn (corn (Zea mays); [18]): 0; Plant response rating, Foxtail, Giant [2, 17]: 20; Plant response rating, Foxtail, Giant [2, 18]: 80; Plant response rating, Crabgrass, Large [3, 17]: 10; Plant response rating, Crabgrass, Large [3, 18]: 20; Plant response rating, Morningglory [4, 17]: 0; Plant response rating, Morningglory [4, 18]: 0; Plant response rating, Velvetleaf [5, 17]: 0; Plant response rating, Velvetleaf [5, 18]: 0; Plant response rating, Wheat [6, 17]: 0; Plant response rating, Wheat [6, 18]: 0; Plant response rating, Rice (rice (Oryza sativa); [15]): 30; Plant response rating, Rice (rice (Oryza sativa); [16]): 0; Plant response rating, Sedge, Umbrella [8, 13]: 70; Plant response rating, Sedge, Umbrella [8, 14]: 75; Plant response rating, Sedge, Umbrella [8, 15]: 80; Plant response rating, Sedge, Umbrella [8, 16]: 45
Cc1ccc(-c2ccc(Cl)cc2)cc1-c1c(O)cnn(C)c1=O [Compound 46]	50	100	50	0	60	100	40	90	0	0	0	0	30	50	0	30	40	0	0	20	Plant response rating, Barnyardgrass [1, 17]: 0; Plant response rating, Barnyardgrass [1, 18]: 40; Plant response rating, Corn (corn (Zea mays); [17]): 20; Plant response rating, Corn (corn (Zea mays); [18]): 0; Plant response rating, Foxtail, Giant [2, 17]: 20; Plant response rating, Foxtail, Giant [2, 18]: 50; Plant response rating, Crabgrass, Large [3, 17]: 0; Plant response rating, Crabgrass, Large [3, 18]: 10; Plant response rating, Morningglory [4, 17]: 0; Plant response rating, Morningglory [4, 18]: 0; Plant response rating, Velvetleaf [5, 17]: 0; Plant response rating, Velvetleaf [5, 18]: 0; Plant response rating, Wheat [6, 17]: 0; Plant response rating, Wheat [6, 18]: 0; Plant response rating, Rice (rice (Oryza sativa); [15]): 35; Plant response rating, Rice (rice (Oryza sativa); [16]): 0; Plant response rating, Sedge, Umbrella [8, 13]: 50; Plant response rating, Sedge, Umbrella [8, 14]: 60; Plant response rating, Sedge, Umbrella [8, 15]: 75; Plant response rating, Sedge, Umbrella [8, 16]: 40
